Laboratory results taken from patent publication US9468661B2, “Pyrrolidine derivatives and their use as complement pathway modulators” (priority 2012, dated 2016).

Target: human factor D (Homo sapiens (Human), UniProt P00746)
Experiment: biochemical
Assay type: biochemical
Conditions: Factor D inhibition data using Method 1; recombinant human factor D 10 nM, substrate Z-Lys-thiobenzyl, fluorescence; read-out: IC50
Method in brief: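 E. coli-expressed recombinant human factor D (10 nM) was preincubated with compound for 1 h at room temperature in 0.1 M Hepes pH 7.5, 1 mM MgCl2, 1 M NaCl, 0.05% CHAPS. Fluorescence (ex 485/em 535 nm) was read after adding Z-Lys-thiobenzyl (200 μM) and 2,4-dinitrobenzenesulfonyl-fluoresceine (25 μM); IC50 came from percent inhibition versus concentration.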

human factor D, sequence (P00746 26-253): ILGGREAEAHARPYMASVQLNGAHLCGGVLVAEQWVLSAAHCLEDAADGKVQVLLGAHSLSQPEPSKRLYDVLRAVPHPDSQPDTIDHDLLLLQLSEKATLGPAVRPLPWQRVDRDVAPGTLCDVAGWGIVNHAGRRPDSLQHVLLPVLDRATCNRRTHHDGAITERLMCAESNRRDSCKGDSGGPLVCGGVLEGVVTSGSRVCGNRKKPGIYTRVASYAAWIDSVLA

| SMILES | IC50 [nM] |
| --- | --- |
| CC1CCCC1CNC(=O)[C@@H]1C[C@H]2C[C@H]2N1C(=O)Cn1nc(C(N)=O)c2ccncc21 (single isomer, unassigned; dia 2) [Example 86] | 610 |
| Cc1ccc2c(C(N)=O)nn(CC(=O)N3[C@@H]4C[C@@H]4C[C@H]3C(=O)NC[C@H]3CC3(Cl)Cl)c2c1 [Example 113, 1-(2-{(1R,3S,5R)-3-[((R)-2,2-Dichloro-cyclopropylmethyl)-carbamoyl]-2-aza-bicyclo[3.1.0]hex-2-yl}-2-oxo-ethyl)-6-methyl-1H-indazole-3-carboxylic acid amide] | 74 |
| NC(=O)c1nn(CC(=O)N2[C@@H]3C[C@@H]3C[C@H]2C(=O)NC[C@@H]2CC2(Cl)Cl)c2ccccc12 [Example 70, 1-(2-{(1R,3S,5R)-3-[((S)-2,2-Dichloro-cyclopropylmethyl)-carbamoyl]-2-aza-bicyclo[3.1.0]hex-2-yl}-2-oxo-ethyl)-1H-indazole-3-carboxylic acid amide] | 90 |
| CC(=O)c1nn(CC(=O)N2[C@@H]3C[C@@H]3C[C@H]2C(=O)NCC2CC(C)C2)c2cnccc12 (stereo partly drawn) [Example 7, (1R,3S,5R)-2-[2-(3-Acetyl-pyrazolo[3,4-c]pyridin-1-yl)-acetyl]-2-aza-bicyclo[3.1.0] hexane-3-carboxylic acid (3-methyl-cyclobutylmethyl)-amide] | 259 |
| CC(=O)c1nn(CC(=O)N2[C@@H]3C[C@@H]3C[C@H]2C(=O)N[C@H](C)[C@H]2CC2(Cl)Cl)c2ccc(OCc3cc(C)[nH]n3)cc12 [Example 64, (1R,3S,5R)-2-{2-[3-Acetyl-5-(5-methyl-1H-pyrazol-3-ylmethoxy)-indazol-1-yl]-acetyl}-2-aza-bicyclo[3.1.0]hexane-3-carboxylic acid [(R)-1-((R)-2,2-dichloro-cyclopropyl)-ethyl]-amide] | 3 |
| CC(=O)c1nn(CC(=O)N2[C@@H]3C[C@@H]3C[C@H]2C(=O)NCC2CCCC(C)(C)C2)c2cnccc12 (single isomer, unassigned; dia 2) [Example 18] | 389 |
| NC(=O)c1nn(CC(=O)N2[C@@H]3C[C@@H]3C[C@H]2C(=O)N[C@H](CO)C23CC(C(F)(F)F)(C2)C3)c2ccccc12 [Example 123, 1-(2-{(1R,3S,5R)-3-[(S)-2-Hydroxy-1-(3-trifluoromethyl-bicyclo[1.1.1]pent-1-yl)-ethylcarbamoyl]-2-aza-bicyclo[3.1.0]hex-2-yl}-2-oxo-ethyl)-1H-indazole-3-carboxylic acid amide] | 1240 |
| CC(=O)c1nn(CC(=O)N2[C@@H]3C[C@@H]3C[C@H]2C(=O)NCC2CCCC(C)C2)c2cnccc12 (single isomer, unassigned; dia 2) [Example 120] | 70 |
| NC(=O)c1nn(CC(=O)N2[C@@H]3C[C@@H]3C[C@H]2C(=O)NC[C@H]2CC2(Cl)Cl)c2cc(Cl)ccc12 [Example 114, 6-Chloro-1-(2-{(1R,3S,5R)-3-[((R)-2,2-dichloro-cyclopropylmethyl)-carbamoyl]-2-aza-bicyclo[3.1.0]hex-2-yl}-2-oxo-ethyl)-1H-indazole-3-carboxylic acid amide] | 40 |
| [2H]C([2H])([2H])[C@@H](NC(=O)[C@@H]1C[C@H]2C[C@H]2N1C(=O)Nc1cn(C(N)=O)c2ccccc12)[C@H]1CC1(Cl)Cl [Example 30, (1R,3S,5R)-2-Aza-bicyclo [3.1.0]hexane-2,3-dicarboxylic acid 2-[(1-carbamoyl-1H-indol-3-yl)-amide] 3-{[(R)-1-((R)-2,2-dichloro-cyclopropyl)-ethyl-2,2,2-D3]-amide}] | 15 |
| NC(=O)c1nn(CC(=O)N2[C@@H]3C[C@@H]3C[C@H]2C(=O)NC[C@@H]2CC2(Cl)Cl)c2cnccc12 [Example 71, 1-(2-{(1R,3S,5R)-3-[((S)-2,2-Dichloro-cyclopropylmethyl)-carbamoyl]-2-aza-bicyclo[3.1.0]hex-2-yl}-2-oxo-ethyl)-1H-pyrazolo[3,4-c]pyridine-3-carboxylic acid amide] | 136 |
| CC(=O)c1nn(CC(=O)N2[C@@H]3C[C@@H]3C[C@H]2C(=O)NCC2CCCC2(C)C)c2cnccc12 (single isomer, unassigned; dia 2) [Example 20] | 233 |
| CC1CCCC(CNC(=O)[C@@H]2C[C@H]3C[C@H]3N2C(=O)Cn2nc(C(N)=O)c3ccncc32)C1 (single isomer, unassigned; dia 4) [Example 118] | 159 |
| NC(=O)c1nn(CC(=O)N2[C@@H]3C[C@@H]3C[C@H]2C(=O)NCC2CC2(F)F)c2ccccc12 (stereo partly drawn) [Example 67, 1-(2-{(1R,3S,5R)-3-[(2,2-Difluoro-cyclopropylmethyl)-carbamoyl]-2-aza-bicyclo[3.1.0]hex-2-yl}-2-oxo-ethyl)-1H-indazole-3-carboxylic acid amide] | 428 |
| CC(=O)c1nn(CC(=O)N2[C@@H]3C[C@@H]3C[C@H]2C(=O)NCC2CC(C)C2)c2ccc(OCc3ncccn3)cc12 (mixture of isomers) [Example 65, (1R,3S,5R)-2-{2-[3-Acetyl-5-(pyrimidin-2-ylmethoxy)-indazol-1-yl]-acetyl}-2-aza-bicyclo[3.1.0] hexane-3-carboxylic acid (3-methyl-cyclobutylmethyl)-amide (mixture of 4 diastereoisomers)] | 20 |
| CC1(C)[C@@H](CNC(=O)[C@@H]2C[C@H]3C[C@H]3N2C(=O)Cn2nc(C(N)=O)c3ccncc32)C1(Cl)Cl [Example 101, 1-(2-{(1R,3S,5R)-3-[((S)-2,2-Dichloro-3,3-dimethyl-cyclopropylmethyl)-carbamoyl]-2-aza-bicyclo[3.1.0]hex-2-yl}-2-oxo-ethyl)-1H-pyrazolo[3,4-c]pyridine-3-carboxylic acid amide] | 297 |
| CC1CCCC(CNC(=O)[C@@H]2C[C@H]3C[C@H]3N2C(=O)Cn2nc(C(N)=O)c3ccncc32)C1 (single isomer, unassigned; dia 1) [Example 115] | 877 |
| NC(=O)c1nn(CC(=O)N2[C@@H]3C[C@@H]3C[C@H]2C(=O)NC[C@H]2CC2(Cl)Cl)c2cnccc12 [Example 72, 1-(2-{(1R,3S,5R)-3-[((R)-2,2-Dichloro-cyclopropylmethyl)-carbamoyl]-2-aza-bicyclo[3.1.0]hex-2-yl}-2-oxo-ethyl)-1H-pyrazolo[3,4-c]pyridine-3-carboxylic acid amide] | 36 |
| CC(=O)c1nn(CC(=O)N2[C@@H]3C[C@@H]3C[C@H]2C(=O)NCC2CC2(C)C)c2ncccc12 (stereo partly drawn) [Example 12, (1R,3S,5R)-2-[2-(3-Acetyl-pyrazolo[3,4-b]pyridin-1-yl)-acetyl]-2-aza-bicyclo[3.1.0] hexane-3-carboxylic acid (2,2-dimethyl-cyclopropylmethyl)-amide] | 1410 |
| CC(=O)c1nn(CC(=O)N2[C@@H]3C[C@@H]3C[C@H]2C(=O)NCC2CC3(CC3)C2)c2cnccc12 [Example 8, (1R,3S,5R)-2-[2-(3-Acetyl-pyrazolo[3,4-c]pyridin-1-yl)-acetyl]-2-aza-bicyclo[3.1.0] hexane-3-carboxylic acid (spiro[2.3]hex-5-ylmethyl)-amide] | 498 |
| CC(=O)c1nn(CC(=O)N2[C@@H]3C[C@@H]3C[C@H]2C(=O)NC[C@H]2CC2(Cl)Cl)c2ccc(OCc3ncccc3F)cc12 [Example 99, (1R,3S,5R)-2-{2-[3-Acetyl-5-(3-fluoro-pyridin-2-ylmethoxy)-indazol-1-yl]-acetyl}-2-aza-bicyclo[3.1.0]hexane-3-carboxylic acid ((R)-2,2-dichloro-cyclopropylmethyl)-amide] | 32 |

Same assay, conditions: IC50, Factor D inhibition data using Method 1; recombinant human factor D 10 nM, substrate Z-Lys-thiobenzyl, fluorescence

| SMILES | IC50 [nM] |
| --- | --- |
| CC1C(CNC(=O)[C@@H]2C[C@H]3C[C@H]3N2C(=O)Cn2nc(C(N)=O)c3ccncc32)C1(Cl)Cl (single isomer, unassigned; dia 2) [Example 82, 1-(2-{(1R,3S,5R)-3-[((1R,3R) or (1S,3S)-2,2-Dichloro-3-methyl-cyclopropylmethyl)-carbamoyl]-2-aza-bicyclo[3.1.0]hex-2-yl}-2-oxo-ethyl)-1H-pyrazolo[3,4-c]pyridine-3-carboxylic acid amide-Dia 2] | 85 |
| [2H]C([2H])([2H])[C@@H](NC(=O)[C@@H]1C[C@H]2C[C@H]2N1C(=O)Cn1nc(C(N)=O)c2ccccc21)[C@H]1CC1(Cl)Cl [Example 121, 1-(2-{(1R,3S,5R)-3-[(R)-1-((R)-2,2-Dichloro-cyclopropyl)-ethyl-2,2,2-D3-carbamoyl]-2-aza-bicyclo[3.1.0]hex-2-yl}-2-oxo-ethyl)-1H-indazole-3-carboxylic acid amide] | 14 |
| CC(=O)c1nn(CC(=O)N2[C@@H]3C[C@@H]3C[C@H]2C(=O)NCC2C(C)C2(Cl)Cl)c2ccc(OCc3ncccn3)cc12 (single isomer, unassigned; dia 1) [Example 108, (1R,3S,5R)-2-{2-[3-Acetyl-5-(pyrimidin-2-ylmethoxy)-indazol-1-yl]-acetyl}-2-aza-bicyclo[3.1.0] hexane-3-carboxylic acid ((1R,3S) or (1S,3R)-2,2-dichloro-3-methyl-cyclopropylmethyl)-amide-Dia 1] | 27 |
| CC1CCC(CNC(=O)[C@@H]2C[C@H]3C[C@H]3N2C(=O)Cn2nc(C(N)=O)c3ccccc32)C1 (single isomer, unassigned; dia 4) [Example 91] | 46 |
| NC(=O)c1nn(CC(=O)N2[C@@H]3C[C@@H]3C[C@H]2C(=O)NC(CO)C2CC2(Cl)Cl)c2ccccc12 (single isomer, unassigned; dia 3) [Example 50] | 7300 |
